Reference: patent publication US8222260B2, “Substituted 6-anilinopurine derivatives as inhibitors of cytokinin oxidase/dehydrogenase and preparations containing these derivatives” (Univerzita Palackego V Olomouci, priority 2007, dated 2012)

Tests used:
AHK3 = target: T1, AHK3 (Arabidopsis thaliana, UniProt Q9C5U1); test: Activation of cytokinin receptors (E. coli KMI001 beta-galactosidase reporter); assay type: cell-based; conditions: 28 h incubation; n.a. means no activation
T1 sequence (Q9C5U1 1-1036): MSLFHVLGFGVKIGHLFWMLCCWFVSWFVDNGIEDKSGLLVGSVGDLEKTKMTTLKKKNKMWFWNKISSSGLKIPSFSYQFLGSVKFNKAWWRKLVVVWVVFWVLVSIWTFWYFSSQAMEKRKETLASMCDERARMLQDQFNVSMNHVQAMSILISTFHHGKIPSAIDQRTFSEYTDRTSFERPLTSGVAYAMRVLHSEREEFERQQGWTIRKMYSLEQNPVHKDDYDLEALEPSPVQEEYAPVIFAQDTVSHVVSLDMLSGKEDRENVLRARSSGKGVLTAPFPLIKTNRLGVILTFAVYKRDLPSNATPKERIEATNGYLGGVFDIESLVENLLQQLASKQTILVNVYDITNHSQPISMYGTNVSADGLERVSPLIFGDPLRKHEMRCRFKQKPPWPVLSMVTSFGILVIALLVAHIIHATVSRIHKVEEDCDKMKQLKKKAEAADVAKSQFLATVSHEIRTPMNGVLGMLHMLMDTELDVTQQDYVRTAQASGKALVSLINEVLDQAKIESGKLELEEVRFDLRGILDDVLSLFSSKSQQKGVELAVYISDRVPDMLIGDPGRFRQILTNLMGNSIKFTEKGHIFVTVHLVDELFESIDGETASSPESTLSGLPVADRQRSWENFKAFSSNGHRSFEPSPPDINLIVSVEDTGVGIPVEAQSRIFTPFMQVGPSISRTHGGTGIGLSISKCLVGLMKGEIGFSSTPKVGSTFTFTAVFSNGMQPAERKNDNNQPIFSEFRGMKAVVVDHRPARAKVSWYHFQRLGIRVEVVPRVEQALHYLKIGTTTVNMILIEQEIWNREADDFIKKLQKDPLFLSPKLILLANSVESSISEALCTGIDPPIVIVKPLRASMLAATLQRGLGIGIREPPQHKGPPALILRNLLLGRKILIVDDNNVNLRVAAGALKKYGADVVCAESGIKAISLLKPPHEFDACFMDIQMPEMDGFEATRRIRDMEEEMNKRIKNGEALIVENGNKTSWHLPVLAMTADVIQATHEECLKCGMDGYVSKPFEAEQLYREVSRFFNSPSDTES
Procedure: (§1) Escherichia coli strains KMI001 harbouring the plasmid […]4 or […]3 were grown overnight at 25° C. in M9 media enriched with 0.1% casamino acids to OD600 1. The preculture was diluted 1:600 in 1 ml M9 medium containing 0.1% casamino acids and 1 μl stock solution of either the tested compound (10^-7 M-5×10^-5 M) or solvent control (DMSO, ethanol, methanol) were added. The cultures were further grown at 25° C. in microtiter plate, 200 μl per well. […] The cultures were centrifuged and 50 μl aliquots of the supernatant were transferred to microtiter plate containing 2 μl 150 mM 4-methyl umbelliferyl galactoside which was subsequently incubated for 1 h at 37° C. The reaction was stopped by adding 100 μl 0.2 M Na2CO3. […] The EC50 value, the compound concentration activating the receptor to 50%, was calculated from the obtained dose response curves. The values shown in Table 10 are means of three replicates and the entire test was repeated at least twice.

CRE1/AHK4 = CRE1/AHK4 (Arabidopsis thaliana, UniProt Q9C5U0); test: as above; assay type: cell-based; conditions: 17 h incubation; n.a. means no activation
Procedure: as §1

[1] = system: cytokinin-dependent tobacco callus Nicotiana tabacum L. cv. Wisconsin 38; test: Tobacco callus biotest (plant cell division); assay type: cell-based; conditions: at the concentration with highest activity, relative to 10^−5 M kinetin
Procedure: The stimulatory effect of the newly prepared derivatives was tested in the calus biotest using cytokinin-dependent tobacco callus. Cytokinin-dependent tobacco callus Nicotiana tabacum L. cv. Wisconsin 38 was maintained at 25° C. in darkness on modified Murashige-Skoog medium, containing per 1 liter: 4 μmol of nicotinic acid, 2.4 μmol of pyridoxine hydrochloride, 1.2 μmol of thiamine, 26.6 μmol of glycine, 1.37 μmol of glutamine, 1.8 μmol of myo-inositol, 30 g of sucrose, 8 g of agar, 5.37 μmol of NAA and 0.5 μmol of 6-benzylaminopurine. Subcultivation was carried out every three weeks. Fourteen days before the bioassay, the callus tissue was transferred to the media without 6-benzylaminopurine. The biological activity was determined from the increase of the fresh callus weight after four weeks of cultivation. Five replicates were prepared for each concentration of the compound tested and the entire test was repeated twice. […] The compounds to be tested were dissolved in dimethylsulfoxide (DMSO) and the solution brought up to 10^−3 M with distilled water.
From the obtained data, the concentration with the highest activity was selected for each compound tested. Relative activity of the compound at this concentration was calculated (Table 11). The activity obtained for 10^−5 M of the control substance kinetin (K) was postulated as 100%.

[2] = system: Amaranthus caudatus cotyledon/hypocotyl explants; test: Amaranthus bioassay (betacyanin content); assay type: cell-based, Amaranthus caudatus var. atropurpurea; conditions: at the concentration with highest activity, relative to 10^−5 M kinetin
Procedure: The standard Amaranthus bioassay was performed with the following modifications. The seeds of Amaranthus caudatus var. atropurpurea were surface-sterilised in 10% (w/v) N-chlorobenzenesulfonamide for 10 min and washed 5 times with deionized water. They were placed in 15 cm Petri dishes containing paper tissues saturated with deionized water. After 72 h of cultivation at 25° C. in darkness, the roots of the seedlings were cut off. The explants, consisting of two cotyledons and hypocotyls, were placed in 5 cm Petri dishes onto two layers of filtration paper soaked with 1 ml of the incubation medium containing 10 μmol of Na2HPO4—KH2PO4, pH 6.8, 5 μmol of tyrosine and the compound to be tested. There were 20 explants per dish. The procedure was carried out under green safe light in a darkroom. After 48 h of incubation at 25° C. in darkness, betacyanin was extracted by freezing the explants in 4 ml 3.33 μM acetic acid. The concentration of betacyanin was determined from the absorbances at 537 nm and 620 nm as follows: ΔA=A537nm−A620nm. The values ΔA were plotted against the concentration tested, are means of five replicates and the entire test was repeated at least twice. […] The compounds to be tested were dissolved in dimethylsulfoxide (DMSO) and the solution brought up to 10^−3M with distilled water.
From the obtained data, the concentration with the highest activity was selected for each compound tested. Relative activity of the compound at this concentration was calculated (Tab. 12). The activity obtained for 10^−5 M kinetin (K) was postulated as 100%.

recombinant AtCKX2 = target: T2, recombinant AtCKX2 (Arabidopsis thaliana, UniProt Q9FUJ3); test: Inhibition of cytokinin oxidase/dehydrogenase activity (PMS/MTT microtitre plate assay); assay type: biochemical; conditions: 30 μM iP as substrate, pH 7.4, 37° C.; means of three replicates; read-out: IC50, inhibition of recombinant AtCKX2
T2 sequence (Q9FUJ3 23-501): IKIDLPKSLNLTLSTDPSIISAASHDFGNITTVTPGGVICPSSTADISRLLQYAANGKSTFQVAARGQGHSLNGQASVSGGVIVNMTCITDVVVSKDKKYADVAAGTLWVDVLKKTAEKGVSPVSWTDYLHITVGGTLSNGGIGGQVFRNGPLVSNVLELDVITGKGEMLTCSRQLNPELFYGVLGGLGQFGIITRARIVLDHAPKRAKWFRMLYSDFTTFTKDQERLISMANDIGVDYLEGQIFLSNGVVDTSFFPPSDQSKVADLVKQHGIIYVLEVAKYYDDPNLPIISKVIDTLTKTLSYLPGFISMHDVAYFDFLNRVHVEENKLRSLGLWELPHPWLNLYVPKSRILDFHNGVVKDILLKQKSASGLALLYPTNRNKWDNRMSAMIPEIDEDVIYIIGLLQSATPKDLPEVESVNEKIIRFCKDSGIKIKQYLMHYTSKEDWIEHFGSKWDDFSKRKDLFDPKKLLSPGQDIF
Procedure: IC50 determinations were done using the assay in microtitre plate. Each well contained 100 μL of PMS/MTT [phenazine methosulfate/3-(4,5-dimethylthiazol-2-yl)-2,5-diphenyltetrazolium bromide] reaction mixture (final concentrations: 0.1 M KH2PO4, pH 7.4, 1 mM MTT, 0.2 mM PMS) containing the tested compound (3×10^−7 M-3×10^−4 M) and 30 μM N^6-isopentenyladenine (iP) as a substrate. 100 μL of cell-free growth medium of S. cerevisiae strain 23344c ura^− harboring the plasmid pYES2-AtCKX2 was directly used as a source of AtCKX2. Plates were incubated in the dark for […] at 37° C. and the enzymatic reaction was stopped by 25 μL of 35% acetic acid. The absorbance at 578 nm was measured using spectrophotometer Tecan. Absorbance of the sample without iP was subtracted.
The IC50 value, the compound concentration that inhibits the enzyme activity to 50%, was calculated from the obtained dose response curves. The values shown in Table 9 are means of three replicates and the entire test was repeated at least twice.

CRE1/AHK4, sequence (Q9C5U0 whole entry): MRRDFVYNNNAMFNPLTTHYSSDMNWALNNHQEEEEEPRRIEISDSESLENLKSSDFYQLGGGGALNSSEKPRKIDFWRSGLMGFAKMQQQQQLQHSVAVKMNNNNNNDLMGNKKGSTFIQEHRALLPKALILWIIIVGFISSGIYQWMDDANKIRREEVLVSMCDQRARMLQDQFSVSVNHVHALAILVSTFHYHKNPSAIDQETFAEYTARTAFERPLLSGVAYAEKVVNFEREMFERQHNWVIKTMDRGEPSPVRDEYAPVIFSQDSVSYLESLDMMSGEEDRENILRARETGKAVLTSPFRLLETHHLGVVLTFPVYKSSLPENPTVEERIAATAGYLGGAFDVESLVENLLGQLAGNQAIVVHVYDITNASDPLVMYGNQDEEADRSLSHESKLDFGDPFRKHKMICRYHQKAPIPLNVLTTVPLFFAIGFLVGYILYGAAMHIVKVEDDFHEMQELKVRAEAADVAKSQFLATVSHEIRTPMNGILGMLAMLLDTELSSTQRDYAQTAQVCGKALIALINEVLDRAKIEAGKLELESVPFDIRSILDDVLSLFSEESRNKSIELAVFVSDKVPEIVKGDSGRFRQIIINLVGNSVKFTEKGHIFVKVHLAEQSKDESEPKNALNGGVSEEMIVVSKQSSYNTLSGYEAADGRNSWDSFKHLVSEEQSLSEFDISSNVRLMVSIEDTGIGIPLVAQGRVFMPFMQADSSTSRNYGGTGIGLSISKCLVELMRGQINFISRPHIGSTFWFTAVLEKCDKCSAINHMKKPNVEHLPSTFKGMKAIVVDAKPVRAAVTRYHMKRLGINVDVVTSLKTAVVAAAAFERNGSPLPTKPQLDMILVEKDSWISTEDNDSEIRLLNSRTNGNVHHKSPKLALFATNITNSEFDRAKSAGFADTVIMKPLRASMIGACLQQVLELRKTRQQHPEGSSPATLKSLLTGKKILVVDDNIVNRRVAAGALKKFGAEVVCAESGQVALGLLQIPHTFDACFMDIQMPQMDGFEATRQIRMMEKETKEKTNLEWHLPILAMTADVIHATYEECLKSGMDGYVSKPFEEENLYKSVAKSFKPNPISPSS

EC50 (AHK3) [µM]	EC50 (CRE1/AHK4) [µM]	IC50 (recombinant AtCKX2) [µM]	Compound	Activity (%) [10^−5 mol · l^−1 K = 100%] [1] [%]	Activity (%) [10^−5 mol · l^−1 K = 100%] [2] [%]
> 50	33.3		Cc1ccc(Nc2nc(Cl)nc3[nH]cnc23)cc1C [Compound 30]		
45.8	> 50		Oc1ccccc1Nc1nc(F)nc2[nH]cnc12 [Compound 47]		
> 50	37.1		Oc1ccc(Nc2nc(F)nc3[nH]cnc23)cc1 [Compound 49]	106	
17.4	> 50		COc1ccccc1Nc1nc(F)nc2[nH]cnc12 [Compound 50]	117.6	105.2
> 50	> 50		Nc1nc(Nc2ccccc2O)c2[nH]cnc2n1 [Compound 71]		
20.4		24.7	COc1cccc(Nc2nc(N)nc3nc[nH]c23)c1 [Compound 75, 2-Amino-6-(3-methoxyanilino)purine]		123.6
42		28.4	Sc1nc(Nc2cccc(Cl)c2)c2nc[nH]c2n1 [Compound 80]	126	106
31.7		28.3	COc1cccc(Nc2nc(S)nc3[nH]cnc23)c1 [Compound 88]	103.4	113.4
29	41		CSc1nc(Nc2cccc(Cl)c2)c2nc[nH]c2n1 [Compound 96]	121.2	145.8
32	49		CSc1nc(Nc2cccc(F)c2)c2nc[nH]c2n1 [Compound 98]	130.3	142.5
> 50		15.7	Cc1nc(Nc2cccc(Cl)c2)c2nc[nH]c2n1 [Compound 111]	128.3	
		21.8	Cc1nc(Nc2cccc(F)c2)c2nc[nH]c2n1 [Compound 113]	125.3	120.2
> 50		9.4	COc1cccc(Nc2nc(C)nc3nc[nH]c23)c1 [Compound 118, 2-Methyl-6-(3-methoxyanilino)purine]	105.7	144.2
